Active and inactive are the calls of the source. The calls are words filed in the database; no cut-off is given here.
Legend:
[1] = tested on: Escherichia coli; test: Antibacterial activity against penicillin-susceptible Escherichia coli ATCC25922 assessed as inhibition of bacterial growth incubated for 18 hrs by CLSI protocol based microbroth dilution method; type: functional
[2] = tested on: Staphylococcus aureus; test: Antibacterial activity against methicillin-resistant Staphylococcus aureus ATCC43300 assessed as reduction in bacterial count at 2 times of MIC incubated for 24 hrs by time kill kinetics assay; type: functional, organism-based
[3] = tested on: Staphylococcus aureus; test: Antibacterial activity against methicillin-resistant Staphylococcus aureus ATCC43300 assessed as log reduction in bacterial count measured within 0.5 hrs by time kill kinetics assay; type: functional
[4] = tested on: Escherichia coli; test: Antibacterial activity against penicillin-susceptible Escherichia coli ATCC25922 assessed as log reduction in bacterial count at 4 times of MIC measured after 1 hrs by time kill kinetics assay; type: functional
[5] = tested on: Escherichia coli; test: Antibacterial activity against penicillin-susceptible Escherichia coli ATCC25922 assessed as log reduction in bacterial count at 4 times of MIC measured after 24 hrs by time kill kinetics assay; type: functional, organism-based
[6] = tested on: Staphylococcus aureus; test: Antibacterial activity against methicillin-resistant Staphylococcus aureus ATCC43300 at assessed as reduction in bacterial growth at 0.5 times of MIC incubated for 18 to 24 hrs and measured after 25 passages by drug resistance assay; type: functional, organism-based
[7] = tested on: Escherichia coli; test: Drug resistance, ratio of MIC for penicillin-susceptible Escherichia coli ATCC25922 incubated for 18 to 24 hrs and measured after 21 passages to MIC for penicillin-susceptible Escherichia coli ATCC25922 measured after 18 to 24 hrs; type: functional
[8] = tested on: Cell membrane; test: Disruption of cell membrane integrity in methicillin-resistant Staphylococcus aureus ATCC43300 assessed as increase in cellular debris at 4 times of MIC incubated for 2 hrs by transmission electron microscopic analysis; type: cell membranes
[9] = tested on: Cell membrane; test: Disruption of cell membrane integrity in methicillin-resistant Staphylococcus aureus ATCC43300 assessed as ghost cell formation at 4 times of MIC incubated for 2 hrs by transmission electron microscopic analysis; type: cell membranes
[10] = tested on: Cell membrane; test: Disruption of cell membrane integrity in penicillin-susceptible Escherichia coli ATCC25922 assessed as cell deformation at 4 times of MIC incubated for 2 hrs by transmission electron microscopic analysis; type: cell membranes
[11] = biological target: T1, Cell division protein FtsZ (Staphylococcus aureus) (UniProt P0A031); test: Induction of recombinant FtsZ polymerization in methicillin-resistant Staphylococcus aureus ATCC43300 assessed as bundling of FtsZ protofilaments at 1 to 4 microg/ml measured within 5 mins by light scattering assay; conditions: filed as activator, dose 1-4 µg/ml
T1 sequence (whole entry): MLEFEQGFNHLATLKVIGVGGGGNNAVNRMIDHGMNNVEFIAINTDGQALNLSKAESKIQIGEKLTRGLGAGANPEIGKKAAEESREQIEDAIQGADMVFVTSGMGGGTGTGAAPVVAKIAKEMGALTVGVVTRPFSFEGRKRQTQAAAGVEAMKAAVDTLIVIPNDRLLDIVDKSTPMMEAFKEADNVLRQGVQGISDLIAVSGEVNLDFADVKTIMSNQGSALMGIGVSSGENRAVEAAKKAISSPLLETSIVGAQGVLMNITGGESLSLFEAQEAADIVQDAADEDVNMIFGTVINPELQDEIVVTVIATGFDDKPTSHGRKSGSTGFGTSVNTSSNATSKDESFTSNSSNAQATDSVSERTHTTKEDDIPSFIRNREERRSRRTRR

[12] = biological target: T2, Cell division protein FtsZ (Escherichia coli K-12) (UniProt P0A9A6); test: Induction of recombinant FtsZ polymerization in penicillin-susceptible Escherichia coli ATCC25922 assessed as stabilization of FtsZ polymers at 1 to 4 microg/ml incubated for 10 mins by light scattering assay; conditions: filed as activator, dose 1-4 µg/ml
T2 sequence (whole entry): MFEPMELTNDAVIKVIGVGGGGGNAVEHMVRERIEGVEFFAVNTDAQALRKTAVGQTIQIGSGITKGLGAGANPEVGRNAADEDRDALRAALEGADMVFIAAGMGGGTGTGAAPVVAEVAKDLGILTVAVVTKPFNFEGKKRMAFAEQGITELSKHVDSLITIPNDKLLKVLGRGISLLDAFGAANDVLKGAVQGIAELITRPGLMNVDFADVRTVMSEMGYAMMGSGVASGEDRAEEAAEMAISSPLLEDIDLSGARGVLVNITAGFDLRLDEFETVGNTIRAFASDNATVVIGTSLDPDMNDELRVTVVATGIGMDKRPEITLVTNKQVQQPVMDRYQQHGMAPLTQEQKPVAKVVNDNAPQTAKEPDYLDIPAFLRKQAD

[13] = biological target: T2, Cell division protein FtsZ (Escherichia coli K-12); test: Induction of recombinant FtsZ polymerization in penicillin-susceptible Escherichia coli ATCC25922 assessed as stabilization of FtsZ bundles at 1 to 4 microg/ml incubated for 10 mins by light scattering assay; conditions: filed as activator, dose 1-4 µg/ml
[14] = biological target: T1, Cell division protein FtsZ (Staphylococcus aureus); test: Induction of FtsZ polymerization in methicillin-resistant Staphylococcus aureus ATCC43300 assessed as increase in size of assembly at 4 microg/ml preincubated for 10 mins followed by GTP addition and measured after 15 mins by transmission electron microscopic analysis; conditions: filed as activator, dose 4.0 µg/ml, time 25.0 min
[15] = biological target: T2, Cell division protein FtsZ (Escherichia coli K-12); test: Induction of FtsZ polymerization in penicillin-susceptible Escherichia coli ATCC25922 assessed as larger bundles at 4 microg/ml preincubated for 10 mins followed by GTP addition and measured after 15 mins by transmission electron microscopic analysis; conditions: filed as activator, dose 4.0 µg/ml, time 25.0 min
[16] = biological target: T2, Cell division protein FtsZ (Escherichia coli K-12); test: Induction of FtsZ polymerization in penicillin-susceptible Escherichia coli ATCC25922 assessed as thicker bundles at 4 microg/ml preincubated for 10 mins followed by GTP addition and measured after 15 mins by transmission electron microscopic analysis; conditions: filed as activator, dose 4.0 µg/ml, time 25.0 min
[17] = biological target: T2, Cell division protein FtsZ (Escherichia coli K-12); test: Enhancement of FtsZ GTPase activity in penicillin-susceptible Escherichia coli ATCC25922 upto 8 microg/ml incubated for 30 mins by malachite green phosphate based assay relative to control; conditions: dose <= 8.0 µg/ml
[18] = Cytotoxicity against mouse RAW264.7 cells assessed as cell viability at 3.125 microg/ml incubated for 24 hrs by CCK8 assay relative to control; type: toxicity, cell-based; conditions: dose 3.125 µg/ml, read-out: Activity
[19] = tested on: Staphylococcus aureus; test: Inhibition of biofilm formation in methicillin-resistant Staphylococcus aureus ATCC43300 incubated for 24 hrs by crystal violet staining based analysis; type: functional, organism-based; conditions: dose 0.78-100 µg/ml
[20] = tested on: Cell membrane; test: Disruption of cell membrane integrity in methicillin-resistant Staphylococcus aureus ATCC43300 assessed as appearance of collapsed cells at 4 times of MIC incubated for 2 hrs by transmission electron microscopic analysis; type: cell membranes
[21] = tested on: Escherichia coli; test: Antibacterial activity against penicillin-susceptible Escherichia coli ATCC25922 assessed as reduction in bacterial growth at 0.5 times of MIC incubated for 18 to 24 hrs and measured after 25 passages by drug resistance assay; type: functional, organism-based
[22] = tested on: Cell membrane; test: Disruption of cell membrane integrity in penicillin-susceptible Escherichia coli ATCC25922 assessed as scattered leakage of content at 4 times of MIC incubated for 2 hrs by transmission electron microscopic analysis; type: cell membranes
[23] = tested on: Staphylococcus aureus; test: Inhibition of biofilm formation in methicillin-resistant Staphylococcus aureus ATCC43300 assessed as decrease in biofilm formation rate at 6.25 microg/ml incubated for 24 hrs by crystal violet staining based analysis relative to control; type: functional; design: scale not given: the % may be the effect or the level left; conditions: dose 6.25 µg/ml

SMILES	MIC [1]	Activity [2]	Activity [3]	Activity [6]	Activity [9]	Activity [10]	Activity [11]	Activity [12]	Activity [13]	Activity [14]	Activity [15]	Activity [16]	Activity [17]	inhibition [19]	Activity [20]	other results
O=C1c2ccccc2-[n+]2ccc3c([nH]c4ccc(-c5ccccc5C(F)(F)F)cc43)c21.[Cl-]	12.5 µg/mL	Active	>3 log10CFU/ml	Active	Active	Active	Active	Active	Active	Active	Active	Active	10%	Dose-Dependent Effect		Activity [4]: 3 log10CFU/ml; Activity [5]: Active; Ratio [7]: 12; Activity [8]: Active; viability at 24 h, 3.125 microg/ml [18]: 81%
O=C1c2ccccc2-[n+]2ccc3c([nH]c4ccc(-c5ccccc5F)cc43)c21.[Cl-]	6.25 µg/mL	Active	>3 log10CFU/ml	Active	Active	Active	Active	Active	Active	Active	Active	Active	10%	Dose-Dependent Effect	Active	
O=C1c2ccccc2-[n+]2ccc3c([nH]c4ccc(-c5ccccc5Cl)cc43)c21.[Cl-]	12.5 µg/mL	Active	>3 log10CFU/ml	Active	Active	Active	Active	Active	Active	Active	Active	Active	10%	Dose-Dependent Effect	Active	Activity [21]: Active; Activity [22]: Active; Activity [23]: 49%
